# Patent publication US20170128518A1, “METHODS AND MATERIALS FOR IDENTIFYING AND TREATING MAMMALS RESISTANT TO PROTEASOME INHIBITOR TREATMENTS” (Mayo Foundation for Medical Education and Research, priority 2014, published 2017)
# “Also recorded” adds a separate entry of the source.
# Legend:
# [1] = molecular target: T1, proteasome b2 subunit (trypsin-like activity) (Homo sapiens, UniProt Q99436); experiment: Proteasomal activity assay, trypsin-like (LRR-AMC), WM cells; assay type: biochemical; details: 10 nM; BCWM.1 and BCWM.1/BR shown
# T1 construct: Cells were lysed at 4×10^6 cells/ml in proteasomal activity assay buffer; endogenous in cells; host or cells: BCWM.1 and BCWM.1/BR (lysates)
# T1 sequence (Q99436 44-277): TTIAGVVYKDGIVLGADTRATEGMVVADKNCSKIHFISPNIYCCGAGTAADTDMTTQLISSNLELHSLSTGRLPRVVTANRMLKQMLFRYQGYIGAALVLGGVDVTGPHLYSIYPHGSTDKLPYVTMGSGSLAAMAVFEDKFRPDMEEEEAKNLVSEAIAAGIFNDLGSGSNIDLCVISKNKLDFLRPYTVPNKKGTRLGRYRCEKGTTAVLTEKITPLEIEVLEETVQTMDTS
# Procedure: (§1) FIGS. 17A-17D are a series of graphs plotting the effects of bortezomib (10 nM), carfilzomib (10 nM) and b-AP15 (10 nM) on caspase-like and trypsin-like proteasomal activities, as assessed in three WT and three BR WM cell lines in vitro using the fluorogenic substrates LLE-AMC (caspase-like activity) and LRR-AMC (trypsin-like activity). Reactions were incubated at 37° C. for 1 hour and the fluorescence was measured at 360/460 and expressed as relative fluorescence units (RFU), using BioTek synergy HT plate reader. Data from two representative cell lines (BCWM.1 and its BR subclone) are shown.
# (§2) Cells were lysed at 4×10^6 cells/ml in proteasomal activity assay buffer [assay buffer; 25 mmol/1 HEPES buffer, pH7.5 containing 0.5 mmol/1 EDTA, 0.05% Nonidet P-40, 0.01% sodium dodecyl sulfate (SDS)] and immediately used in the assay. Enzyme reactions were performed in 96-well plates with 100 μl of final volume containing […] fluorogenic peptide substrates. The substrates used were LLVY-AMC for chymotrypsin like activity, LLE-AMC for caspase-like activity and LRR-AMC for trypsin-like activity. Reactions were incubated at 37° C. for 1 hour and fluorescence was measured at 360/460 using a BioTek synergy HT plate reader (BioTek, Winooski, Vt.).
# WM cells = experiment: Immunoblot analysis of WM cells; assay type: cell-based, human
# Procedure: Total protein extracts were made using radioimmunoprecipitation assay lysis buffer (50 mmol/1 Tris containing 150 mmol/1 NaCl, 0.1% SDS, 1% TritonX-100, 1% sodium deoxycholate, pH 7.2) with 0.2% protease and phosphatase inhibitor cocktail (Sigma, St. Louis, Mo.) on ice for 40 minutes, vortexing for 5 seconds every 10 minutes. Following centrifugation at 18,400 g for 20 minutes, the supernatant was collected and used for Western blot analyses. Protein content in the extracts was measured by bicinchoninic acid protein assay reagent. Aliquots of 20 μg of total protein were boiled in Laemmli sample buffer, loaded onto 10% SDS-PAGE gels, and transferred onto a nitrocellulose membrane. Membranes were blocked for 1 hour in TBS/Tween 20 [TTBS] containing 1% nonfat dried milk and 1% BSA. Incubation with primary antibodies was done overnight at 4° C., followed by washing 3× with TTBS and incubation for 1 hour with HRP-conjugated secondary antibody. The blots were developed using chemiluminescence (Thermo Scientific, Rockford, Ill.).
# BCWM.1 cells = experiment: Annexin-V apoptosis assay, BCWM.1; assay type: cell-based, human
# Procedure: FIG. 18 is a series of representative heat density plots showing Annexin-V staining in BCWM.1 and BCWM.1/BR±b-AP15 treatment, indicating about 46% cell death in BCWM.1 cells (top panels) and about 42% cell death in BCWM.1/BR cells (bottom panels).
# Apoptosis was measured using the Annexin V binding assay kit from BD Biosciences according to the manufacturer's instructions. Briefly, at the end of the treatment, cells were washed with PBS and 1×10^6 cells were re-suspended in 100 μl of binding buffer. Fluorescein isothiocycanate (FITC)-labelled Annexin V (5 μl) and propidium iodide (10μ were added to each sample and incubated in the dark for 15 minutes at room temperature. The cells were subsequently analyzed by flow cytometry using BD Accuri, the C6 flow cytometer and its software. Data from 10,000 events per sample were collected and analyzed.
# [2] = molecular target: T2, proteasome b1 subunit (caspase-like activity) (Homo sapiens, UniProt P28072); experiment: Proteasomal activity assay, caspase-like (LLE-AMC), WM cells; assay type: biochemical; details: 10 nM; BCWM.1 and BCWM.1/BR shown
# T2 construct: Cells were lysed at 4×10^6 cells/ml in proteasomal activity assay buffer; endogenous in cells; host or cells: BCWM.1 and BCWM.1/BR (lysates)
# T2 sequence (P28072 whole entry): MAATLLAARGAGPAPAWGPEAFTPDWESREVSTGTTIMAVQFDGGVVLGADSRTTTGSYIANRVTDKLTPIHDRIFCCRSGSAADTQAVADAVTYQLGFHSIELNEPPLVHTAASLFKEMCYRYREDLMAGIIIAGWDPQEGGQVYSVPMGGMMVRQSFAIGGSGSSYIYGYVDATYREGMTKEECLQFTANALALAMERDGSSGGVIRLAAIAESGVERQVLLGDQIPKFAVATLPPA
# Procedure: as §1, §2
smiles,measurement,setting,value
C=CC(=O)N1C/C(=C\c2ccc([N+](=O)[O-])cc2)C(=O)/C(=C/c2ccc([N+](=O)[O-])cc2)C1 [b-AP15],trypsin-like proteasomal activity,[1],no change in trypsin-like activity
same,BCL2 protein,WM cells,No change
same,p-EIF2a expression,WM cells,did not appear to change
same,phosphorylated MAPK14 (p38) protein,WM cells; 6-hour treatment,significant increase
same,RELA nuclear protein levels,"WM cells; 6 hours, BCWM.1 shown",marked reduction; also recorded: markedly reduced
same,MYC total and nuclear expression,WM cells; BCWM.1,reduced total and nuclear expression
same,EIF2AK3 (PERK) levels,WM cells; BR models,decreased EIF2AK3 levels
same,USP14 and UCHL5 protein expression,"WM cells; WM cell lines (WT and BR), 0.5 and 1 μmol/l",no observable shift
same,PARP1 cleavage,WM cells; WM cell lines and primary WM tumor cells,confirming execution of apoptosis
same,TP53 protein,WM cells; WT and BR WM cells,marginal increase
same,HSPA1A protein,WM cells; all cell lines,further induced
same,"ERN1a, XBP1u and XBP1s protein",WM cells; all models tested,significantly induced
same,total ubiquitinated cellular protein content,WM cells; dose-dependent,increasing amounts of high molecular weight polyubiquitinated conjugates
same,USP14 and UCHL5 protein expression,"WM cells; primary CD19+/CD138+ WM cells, 0.5 μmol/l",did not change
same,p-MAPK3/MAPK1 (ERK1/2),WM cells; wild type cell lines,increase
same,cell death (Annexin-V staining),BCWM.1 cells,about 46%
same,caspase-like proteasomal activity,[2],no change in caspase-like activity
